Measurements reported in PMC6482079 (European journal of pharmaceutical sciences : official …, 2019).

Key:
[1] = test system: B/Wisconsin/1/2010 (Yamagata); experiment: Plaque reduction assay in ST6Gal I-overexpressing MDCK cells; type: cell-based, influenza B virus; conditions: for Drug sensitivity: sensitivity of the strain to the named drug
[2] = test system: B/Bris/60/2008 (Victoria); experiment: as above; type: cell-based, influenza B virus; conditions: for Drug sensitivity: sensitivity of the strain to the named drug

SMILES	Drug sensitivity [1]	Drug sensitivity [2]	SI (selectivity index) ([1]; CC50/EC50)	EC50 ([1]; Influenza B virus, MDCK)	SI (selectivity index) ([2]; CC50/EC50)	EC50 ([2]; Influenza B virus, MDCK)
NC12CC3CC(CC(C3)C1)C2 [Amantadine, amantadine]	Resistant	Resistant				
Cc1cc(OCc2nnc(SC3CCCC3)n2-c2cccnc2)ccc1-c1ccc(S(C)(=O)=O)cc1 [NMS-873]			78	35 ± 5 nM	97	28 ± 8 nM
CCC(CC)O[C@@H]1C=C(C(=O)O)C[C@H](N)[C@H]1NC(C)=O [Oseltamivir carboxylate]	Sensitive	Sensitive				
